From US20150203498A1, “INHIBITORS OF PHOSPHODIESTERASE 10 ENZYME” (Janssen Pharmaceutica NV, priority 2012, published 2015) come the findings set out here.

The target in data set [1] is T1, rPDE10A2 (Rattus norvegicus, UniProt Q9QYJ6).
T1 construct: made in house; host or cells: Sf9 insect cells (baculovirus)
T1 sequence (Q9QYJ6 1-794): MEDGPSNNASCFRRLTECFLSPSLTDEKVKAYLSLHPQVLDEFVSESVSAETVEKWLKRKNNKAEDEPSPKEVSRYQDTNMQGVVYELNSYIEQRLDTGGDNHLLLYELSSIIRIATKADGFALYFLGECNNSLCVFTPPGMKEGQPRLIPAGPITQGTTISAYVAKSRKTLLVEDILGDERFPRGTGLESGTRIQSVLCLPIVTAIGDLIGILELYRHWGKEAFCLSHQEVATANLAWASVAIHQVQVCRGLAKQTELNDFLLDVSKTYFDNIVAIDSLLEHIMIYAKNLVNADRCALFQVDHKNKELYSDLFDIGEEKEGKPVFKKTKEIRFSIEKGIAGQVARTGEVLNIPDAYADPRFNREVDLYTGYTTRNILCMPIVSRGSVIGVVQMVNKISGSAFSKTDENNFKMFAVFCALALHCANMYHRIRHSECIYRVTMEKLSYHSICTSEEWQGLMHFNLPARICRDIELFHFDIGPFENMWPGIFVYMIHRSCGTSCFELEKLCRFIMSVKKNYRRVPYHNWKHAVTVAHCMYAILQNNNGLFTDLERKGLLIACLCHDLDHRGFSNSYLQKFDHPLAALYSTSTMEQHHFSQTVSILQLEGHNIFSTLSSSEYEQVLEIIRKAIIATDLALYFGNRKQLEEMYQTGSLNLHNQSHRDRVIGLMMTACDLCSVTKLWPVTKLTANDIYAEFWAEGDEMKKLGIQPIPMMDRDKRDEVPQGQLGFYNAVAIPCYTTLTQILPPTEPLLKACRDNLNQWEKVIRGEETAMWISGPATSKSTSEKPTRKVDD
The data set can be described thus: In vitro assay PDE10A, rat recombinant enzyme (SPA, 3H-cAMP). Format: biochemical. The following applies: -log IC50 expressed in mol/L; 60 nM cAMP; read-out: PDE10A2 pIC50 - rat enzyme (converted). The protocol:
(§1) Human or rat recombinant PDE10A (hPDE10A2 or rPDE10A2) was expressed in Sf9 cells using a recombinant hPDE10A or rPDE10A baculovirus construct. Cells were harvested after 48 h of infection and the hPDE10A or rPDE10A protein was purified by metal chelate chromatography on Ni-sepharose 6FF. Tested compounds were dissolved and diluted in 100% DMSO to a concentration 100 fold of the final concentration in the assay. Compound dilutions (0.4 μl) were added in 384 well plates to 20 μl of incubation buffer (50 mM Tris pH 7.8, 8.3 mM MgCl2, 1.7 mM EGTA). 10 μl of hPDE10A or rPDE10A enzyme in incubation buffer was added and the reaction was started by addition of 10 μl substrate to a final concentration of 60 nM cAMP and 0.008 μCi ^3H-cAMP. The reaction was incubated for 60 min. at RT. After incubation, the reaction was stopped with 20 μl of stop solution consisting of 17.8 mg/ml PDE SPA (scintillation proximity assay) beads. After sedimentation of the beads during 30 min. the radioactivity was measured in a Perkin Elmer Topcount scintillation counter and results were expressed as cpm. For blanc values the enzyme was omitted from the reaction and replaced by incubation buffer. Control values were obtained by addition of a final concentration of 1% DMSO instead of compound. A best fit curve was fitted by a minimum sum of squares method to the plot of % of control value substracted with blanc value versus compound concentration and the half maximal inhibitory concentration (IC50) value was derived from this curve.

The nature of data set [2]: Plasma protein binding by equilibrium dialysis. Format: in vitro ADME, human. The following applies: male, human, plasma, pH 7.17, human plasma. The procedure: (§2) The plasma protein binding and blood distribution was investigated in healthy human subjects. Fresh blood was collected and centrifugated (approximately 1700 g for 10 min, room temperature, Hettich Rotixa AP centrifuge). The experiment was started within 4 hours after blood collection.
(§3) Individual blank plasma samples from three healthy male subjects, tested in duplicate, were fortified with compound la or compound lb at different concentrations (see Table 5). Plasma samples were spiked with 10 μl spike solution per ml of sample (1% ethanol (v/v)).
(§4) Fortified plasma was subjected to equilibrium dialysis (ED), for 4 h against a 0.067 M phosphate buffer, pH 7.17 at 37° C. in a Dianorm system with identical macro-1 Teflon cells and Spectra/Por® RC 2 dialysis membranes (MW cut-off 12-14 kDa). After dialysis, the contents of the two compartments of the dialysis cells were collected separately. The buffer samples were diluted with 1 mL of 5% Bovine Serum Albumin in a Phosphate buffer 0.05M, pH 7.5.
(§5) The plasma samples (before and after equilibrium dialysis) and buffer samples were analysed for compound la or compound lb using a qualified chiral LC-MS/MS assay on a API4000 mass spectrometer (Applied Biosystems).
(§6) The fraction of the unbound test compound (fu) was calculated as the ratio of the unbound concentration (Cu) in the buffer compartment to the total concentration (CED) in the protein compartment of the dialysis cells. The percentage of the free test compound was calculated as […]
A general note: Equilibrium dialysis compares concentrations on both sides of a semipermeable membrane.

The subject of data set [3] is plasma proteins. The data set can be described thus: Plasma protein binding by equilibrium dialysis. The following applies: human plasma; for Free fraction, Average per subject: average of duplicate per subject; for Free fraction: single determinations, subjects 1-3 in duplicate, equilibrium dialysis 4 h, 37° C. Format: in vitro ADME, human. The protocol: as §2, §3, §4, §5, §6

Data set [4] has as its system apomorphine-induced stereotypy. The data set can be described thus: Apomorphine-induced stereotypy in rats (APO). Format: in vivo, rat. As to conditions: Rattus norvegicus, iv, apomorphine 1.0 mg/kg i.v., 1 hour pre-treatment with test compound, dose at which 50% of animals show the effect. The procedure:
Apomorphine (1.0 mg/kg, i.v.)-induced stereotypy (compulsive sniffing, licking, chewing) was scored every 5 min. over the first hour after injection of apomorphine, following a 1 hour interval pre-treatment with the test compound. The score system was: (3) pronounced, (2) moderate, (1) slight, and (0) absent. Criteria for drug-induced inhibition of stereotypy: fewer than 6 scores of 3 (0.16% false positives), fewer than 6 scores of 2 (0.0% false positives), or fewer than 7 scores of 1 (0.81% false positives).

Data set [5] addresses T2, hPDE10A2 (Homo sapiens, UniProt Q9Y233).
T2 construct: made in house; host or cells: Sf9 insect cells (baculovirus)
The data set can be described thus: In vitro assay PDE10A, human recombinant enzyme (SPA, 3H-cAMP). Format: biochemical. The following applies: -log IC50 expressed in mol/L; 60 nM cAMP; read-out: PDE10A2 pIC50 - human enzyme (converted). The protocol:
as §1

The mark [6] stands for this setting: average of duplicate per subject, read-out: Free fraction, Average per subject.
Where [7] appears, read: single determinations, subjects 1-3 in duplicate, equilibrium dialysis 4 h, 37° C., read-out: Free fraction.

Where “and” joins values, the source holds several entries; their conditions need not be identical. Equal values may be shown once. Read-outs that look alike come from different tables or passages of the source.

T2 sequence (Q9Y233 267-1055): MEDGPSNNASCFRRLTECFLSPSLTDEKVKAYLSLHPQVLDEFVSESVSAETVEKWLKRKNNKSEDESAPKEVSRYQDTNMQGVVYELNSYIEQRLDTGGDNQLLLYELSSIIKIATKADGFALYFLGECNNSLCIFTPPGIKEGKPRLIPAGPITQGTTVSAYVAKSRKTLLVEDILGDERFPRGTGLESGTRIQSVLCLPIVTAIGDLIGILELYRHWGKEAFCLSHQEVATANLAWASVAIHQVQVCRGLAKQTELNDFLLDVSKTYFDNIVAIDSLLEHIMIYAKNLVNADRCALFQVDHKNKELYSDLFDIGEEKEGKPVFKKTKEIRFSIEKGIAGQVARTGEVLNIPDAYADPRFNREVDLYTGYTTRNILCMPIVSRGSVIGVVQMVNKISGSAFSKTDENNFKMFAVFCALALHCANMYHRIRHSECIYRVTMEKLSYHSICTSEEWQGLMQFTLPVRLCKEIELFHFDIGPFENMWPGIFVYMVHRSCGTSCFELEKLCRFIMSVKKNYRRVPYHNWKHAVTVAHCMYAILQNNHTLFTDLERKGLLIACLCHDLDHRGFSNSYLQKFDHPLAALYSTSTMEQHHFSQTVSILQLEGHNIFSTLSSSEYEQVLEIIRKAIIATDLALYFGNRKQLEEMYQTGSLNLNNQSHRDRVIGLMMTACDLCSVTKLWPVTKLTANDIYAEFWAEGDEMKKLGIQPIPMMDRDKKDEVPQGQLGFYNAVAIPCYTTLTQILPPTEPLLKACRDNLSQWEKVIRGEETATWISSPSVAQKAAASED

Usually ED50 stands for the dose at which the effect has come halfway, by size or by number of responders. Broadly, the melting point is the temperature of the solid-liquid transition. Compound `COCC(O)c1ccc(-c2c(C)nc3c(N4CCOCC4)ccnn23)cn1` (single isomer, unassigned) [Compound 1a] had a melting point of 134.9 °C. In addition, the IC50 in data set [1] is 47.9 nM. Also, in data set [2] (setting [6]), the fraction unbound at 4 h, 0.1 μg/ml worked out at 0.481 and the fraction unbound at 4 h, 13 μg/ml worked out at 0.448. In addition, in data set [2] (setting [7]), the fraction unbound at 4 h, 0.1 μg/ml worked out at 0.468 and the fraction unbound at 4 h, 13 μg/ml turned out to be 0.446. Also, the fraction unbound at 4 h in data set [2] (0.1 and 13 μg/ml pooled, three subjects in duplicate, read-out: Free fraction, Average (S.D.) (n = 12)) came to 0.469. Also, in data set [3] (0.1 μg/ml), the “Average percentage of free compound in plasma” value was found to be 48.3%; the “Free fraction, Average per subject” value is 48.5% and 48.3%; the Free fraction is 50.1% and 47.6% and 48.9% and 47.3%. In data set [3] (13 μg/ml), the “Average percentage of free compound in plasma” value is reported as 45.5%; the “Free fraction, Average per subject” value was 45.4% and 46.2%; the Free fraction was 46.1% and 46.5% and 46.0% and 43.9% and 45.6%. Also, the “Concentration dependency in the plasma protein binding” value in data set [3] (within the concentration range tested) is recorded as “No relevant concentration dependency”. The ED50 in data set [4] is 1.2 mg/kg. Moreover, the IC50 in data set [5] was 75.9 nM.
